Results published in PMC2845980 (Bioorganic & medicinal chemistry, 2010).
Read-outs that look alike come from different tables or passages of the source.

How the values were obtained:
tgDHFR = tgDHFR (Toxoplasma gondii, UniProt Q07422); assay: Spectrophotometric DHFR inhibition assay, T. gondii enzyme; type: biochemical; settings: IC50 rlDHFR / IC50 tgDHFR
Solubility = type: physicochemical; settings: qualitative statement
[1] = first study, i.p. 50 mg/kg/day, mouse
[2] = second study, i.p. 50 mg/kg/day, mouse

Sequence of tgDHFR (Q07422 whole entry): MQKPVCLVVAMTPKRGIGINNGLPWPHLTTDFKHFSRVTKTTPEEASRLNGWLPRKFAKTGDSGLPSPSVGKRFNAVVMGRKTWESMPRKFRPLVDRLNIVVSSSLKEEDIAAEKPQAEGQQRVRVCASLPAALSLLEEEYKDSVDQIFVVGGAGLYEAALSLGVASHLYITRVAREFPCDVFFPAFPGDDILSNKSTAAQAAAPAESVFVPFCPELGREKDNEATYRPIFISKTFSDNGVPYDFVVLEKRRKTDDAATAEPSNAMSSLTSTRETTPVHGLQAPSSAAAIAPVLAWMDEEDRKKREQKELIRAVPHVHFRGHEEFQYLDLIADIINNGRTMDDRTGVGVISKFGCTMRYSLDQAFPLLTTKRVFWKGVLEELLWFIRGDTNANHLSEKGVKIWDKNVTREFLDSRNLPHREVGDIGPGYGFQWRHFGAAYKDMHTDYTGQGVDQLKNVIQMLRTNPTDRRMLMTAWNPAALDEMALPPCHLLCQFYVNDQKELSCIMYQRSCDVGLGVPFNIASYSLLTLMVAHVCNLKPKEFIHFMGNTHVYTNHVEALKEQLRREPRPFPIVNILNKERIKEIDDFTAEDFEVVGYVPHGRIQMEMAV

solubility properties (Solubility)	SMILES	selectivity ratio rl/tg (tgDHFR)	Mean counts of T. gondii per 1000x field in peritoneal harvest (T. gondii; [1]) [counts per 1000x field]	Median counts of T. gondii per 1000x field in peritoneal harvest (T. gondii; [1]) [counts per 1000x field]	gross toxicity in treated mice (T. gondii; mouse, in vivo, ip, 50 mg/kg/day)	reduction of the median counts per 1000x field versus control (T. gondii; second study, i.p. 50 mg/kg/day)	Mean counts of T. gondii per 1000x field in peritoneal harvest (T. gondii; [2]) [counts per 1000x field]	Median counts of T. gondii per 1000x field in peritoneal harvest (T. gondii; [2]) [counts per 1000x field]
–	Cc1c(Sc2ccc3ccccc3c2)[nH]c2nc(N)nc(N)c12 [Compound 90, 2,4-Diamino-5-methyl-6-(2-naphthylthio)pyrrolo[2,3-d]pyrimidine]	5	–	–	–	–	–	–
poor solubility properties	Cc1cccc(C)c1Sc1[nH]c2nc(N)nc(N)c2c1C [Compound 91, 2,4-Diamino-5-methyl-6-(2′,6′-dimethylphenylthio)pyrrolo[2,3-d]pyrimidine]	–	12.5	7.0	no gross evidence of toxicity	more than two-fold	8.9	5.0
more soluble	Cc1cccc(C)c1Sc1[nH]c2nc(N)nc(N)c2c1C.Cl [Compound 95, 2,4-Diamino-5-methyl-6-(2′,6′-dimethylphenylthio)pyrrolo[2,3-d]pyrimidine hydrochloride salt]	–	–	–	–	–	2.4	1.0
